The target in one assay is T1, NFS1 H156A (Homo sapiens, UniProt Q9Y697, H156A).
T1 construct: His tag (N); made in house; host or cells: E. coli BL21(DE3)
Nature of the assay: H2S-producing assay, NFS1 H156A mutant. Type of assay: biochemical. How it is done: (§1) To further validate the accuracy of the simulated results, the residues Cys158, Glu387, Lys157, and His156 were mutated to alanine using site-directed mutagenesis.
(§2) For the expression and purification of NFS1Δ1-55/ISD11 in E. coli, the plasmid pNFS1-ISD11 was transformed into BL21(DE3) cells. The cells were grown at 37 °C in 1 L cultures of LB medium containing chloramphenicol (50 μg/ml) until the optical density at 600 nm (OD600) reached 0.6–0.8. Protein expression was induced by adding 0.1 mM isopropyl β-D-1-thiogalactopyranoside (IPTG), followed by an additional 12 h of incubation at 25 °C. The cells were harvested by centrifugation at 8000 rpm for 10 min at 4 °C, then resuspended in lysis buffer containing 50 mM phosphate-buffered saline (PBS, pH 7.4), 500 mM NaCl, 100 mg/L lysozyme, 30 mM imidazole, and 1 mM phenylmethanesulfonyl fluoride (PMSF). The resuspended cells were incubated on ice for 1 h, followed by sonication using an Ultrasonic Cell Disruption System (Scientz, Ningbo, China). The supernatant was obtained by centrifugation at 12,000 rpm for 30 min at 4 °C and was loaded onto a HisTrap FF column (GE Healthcare, Chicago, MA, USA) pre-equilibrated with lysis buffer. […] The protein concentration was measured using a BCA protein assay reagent kit (TransGen Biotech, Beijing, China).

The test system of assay [1] is A549 cells. Nature of the assay: CCK-8 cell viability assay, A549. Type of assay: cell-based, human. How it is done:
(§3) Human bronchial epithelial cells (BEAS-2B) and human lung adenocarcinoma A549 cells were purchased from the Institute of Biochemistry and Cell Biology, Chinese Academy of Sciences (Shanghai, China). BEAS-2B and A549 cells were cultured in DMEM supplemented with 10% (v/v) fetal bovine serum and 1% (v/v) penicillin–streptomycin solution at 37 °C in a humidified atmosphere containing 5% CO2. The half-maximal inhibitory concentration (IC50) values of the selected compounds against BEAS-2B and A549 cells were determined using the CCK-8 assay. Briefly, the cells were seeded into 96-well culture plates at a density of 5 × 10^3 cells per well. After 12 h of culture, fresh medium containing varying concentrations of the selected compounds dissolved in DMSO was added for an additional 72-hour incubation. Subsequently, 10 μL of CCK-8 solution was added to each well, followed by a further 1.5-h incubation at 37 °C. The optical density at 450 nm (OD450) for each well was measured using a microplate reader. Medium containing DMSO alone was used as the control group. Cell viability was calculated as the percentage of the OD450 of the experimental group compared to that of the control group, which was set at 100%.
(In general: Formazan colour is commonly taken as a measure of viable cells.)

The subject of a further assay is BEAS-2B cells. The assay can be described thus: CCK-8 cell viability assay, BEAS-2B. The conditions noted are these: Homo sapiens, CCK-8, 72 h. The class given is cell-based. How it is done:
as §3

Another assay addresses T2, NFS1 C158A (Homo sapiens, UniProt Q9Y697, C158A).
T2 construct: His tag (N); made in house; host or cells: E. coli BL21(DE3)
The assay can be described thus: H2S-producing assay, NFS1 C158A mutant. Type of assay: biochemical. The protocol:
as §1, §2

In assay [2] the test system is A549 cells. The assay can be described thus: Lipid peroxide (LPO) content. The class given is cell-based, human. The following applies: 48 h, Erastin 2.5 µM, Compound 53 50 µM, 2-AAPA 20 µM, alone or combined. How it is done: A549 cells were seeded in 10 cm dishes at a density of 2 × 10^6 cells per dish and cultured until they reached 40–60% confluence. […] Lipid peroxidation (LPO) levels were measured using a Lipid Peroxide (LPO) Content Assay Kit (Solarbio, China) following the manufacturer’s instructions.

For assay [3], the system named is A549 cells. Nature of the assay: Cellular iron content by atomic absorption spectroscopy. The class given is cell-based, human. The following applies: 50 µM, 48 h. The protocol:
A549 cells were seeded in a 6-well plate and grown to 40–60% confluence. […] The cells were then washed three times with PBS and digested with 0.25% trypsin (Servicebio, Wuhan, China) for 2 min. The cells were divided into two equal groups: group A and group B. In group A, the cells were lysed with RIPA lysis buffer supplemented with 1 mM of PMSF to extract the total proteins. Protein concentrations were measured using a BCA protein assay reagent kit. In group B, the cells were treated with concentrated nitric acid at 70 °C for 2 h. Once the cells were completely nitrated, the temperature was increased to 150 °C until the nitric acid had completely evaporated. Subsequently, the samples were diluted to 10 mL with a solution containing 1% HNO3 and 0.1% KCl, and the iron levels were measured using atomic absorption spectroscopy (AAS; Analytik Jena AG, Jena, Germany). The iron content was calculated based on the standard curve, and the values were normalized to the protein concentration.

The next assay addresses T3, NFS1 K157A (Homo sapiens, UniProt Q9Y697, K157A).
T3 construct: His tag (N); made in house; host or cells: E. coli BL21(DE3)
Nature of the assay: H2S-producing assay, NFS1 K157A mutant. Type of assay: biochemical. How it is done: as §1, §2

Assay [4] concerns A549 cells. Nature of the assay: Endogenous ROS levels, DCFH-DA fluorescence. The class given is cell-based, human. The conditions noted are these: 48 h, Compound 53 50 µM, Erastin 2.5 µM, 2-AAPA 20 µM. The protocol:
Endogenous ROS levels in A549 cells were detected using the fluorescent dye DCFH-DA [48, 49]. A549 cells were cultured in DMEM supplemented with 10% fetal bovine serum at 37 °C in a humidified atmosphere containing 5% CO2. […] Subsequently, the cells were washed three times with prewarmed PBS, and fresh medium containing 10 μM of DCFH-DA was added. After 30 min of incubation, the cells were washed again with prewarmed PBS, fresh medium was added, and the cells were imaged using an inverted fluorescence microscope (Leica, Wetzlar, Germany). Images of live cells were acquired in six different fields. ImageJ software was used to analyze the images.

Each structure is given as a SMILES string.

T2 sequence (Q9Y697 56-457 C158A): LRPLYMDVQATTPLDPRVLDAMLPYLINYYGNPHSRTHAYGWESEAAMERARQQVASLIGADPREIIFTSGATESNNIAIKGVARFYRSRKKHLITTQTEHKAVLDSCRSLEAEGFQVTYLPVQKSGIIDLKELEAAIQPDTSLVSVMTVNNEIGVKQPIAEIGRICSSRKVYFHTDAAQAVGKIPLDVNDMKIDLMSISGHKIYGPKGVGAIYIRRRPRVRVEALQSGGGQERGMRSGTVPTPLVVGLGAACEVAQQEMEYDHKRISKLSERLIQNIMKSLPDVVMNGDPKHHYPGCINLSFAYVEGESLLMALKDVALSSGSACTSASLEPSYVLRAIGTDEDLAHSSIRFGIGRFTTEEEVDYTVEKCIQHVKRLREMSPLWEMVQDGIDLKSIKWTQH
T1 sequence (Q9Y697 56-457 H156A): as the sequence (Q9Y697 56-457 C158A) above, with H101A, A103C counted along it
T3 sequence (Q9Y697 56-457 K157A): as the sequence (Q9Y697 56-457 C158A) above, with K102A, A103C counted along it

The IC50 is the midpoint of a concentration-inhibition curve. On to `COc1cc(/C=N/NC(=O)COc2ccc(Cl)cc2Cl)ccc1O` [Compound 53], for which the concentration for half-maximal inhibition (IC50) against NFS1 H156A stood at 97.3 ± 1.39 µM; in the assay on A549 cells [1] (Homo sapiens, A549, CCK-8, 72 h) it was 16.3 ± 1.92 µM; with BEAS-2B cells, 31 ± 3.98 µM; on NFS1 C158A, 114 ± 3.45 µM; against NFS1 K157A, 53.2 ± 6.44 µM. The “anti-proliferative activity in the presence of Erastin” value in the assay on A549 cells [1] (A549 cells, Compound 53 50 µM with 2.5 µM Erastin, versus without) is listed as “increased remarkably”. Moreover, the “intracellular lipid peroxide (LPO) levels” value in the assay on A549 cells [2] is “no significant changes”. For the same molecule, the cellular iron content entry with A549 cells [3] was “significantly increased the cellular iron content”. Moreover, the “intracellular ROS levels” value in the assay with A549 cells [4] is recorded as “did not significantly affect intracellular ROS levels”.

(Values after paper PMC11942905, “Identification of a Selective Inhibitor of Human NFS1, a Cysteine Desulfurase Involved in Fe-S Cluster Assembly, via Structure-Based Virtual Screening” (International Journal of Molecular Sciences, 2025).)
